Assay results from US8741567B2, “Composition and methods related to modification of 5-hydroxymethylcytosine (5-hmC)” (The University of Chicago, priority 2010, dated 2014).

What was measured:
wild-type βGT = wild-type βGT (Enterobacteria phage T4, UniProt P04547)
MspI [1] = target: T1, MspI (Moraxella sp, UniProt P11405); assay: MspI restriction digestion of 40-mer DNA with CC*GG; assay type: biochemical; conditions: 40-mer duplex DNA
Source text: FIG. 2. Restriction enzyme digestion assay of a 40 mer DNA with CC*GG (where C*=C, 5-meC, 5-hmC, or 5-gmC).
The inventors tested a restriction enzyme digestion assay with a 40-mer DNA containing a CC*GG (C*=C, 5-meC, 5-hmC, or 5-gmC) sequence in the middle. […] With bulkier groups on 5-hmC, digestions by other restriction enzymes that recognize DNA sequences containing CpG can be blocked.

HpaII = HpaII (Haemophilus parainfluenzae, UniProt P36433); assay type: biochemical; conditions: 40-mer DNA
HpaII, sequence (P36433 whole entry, looked up): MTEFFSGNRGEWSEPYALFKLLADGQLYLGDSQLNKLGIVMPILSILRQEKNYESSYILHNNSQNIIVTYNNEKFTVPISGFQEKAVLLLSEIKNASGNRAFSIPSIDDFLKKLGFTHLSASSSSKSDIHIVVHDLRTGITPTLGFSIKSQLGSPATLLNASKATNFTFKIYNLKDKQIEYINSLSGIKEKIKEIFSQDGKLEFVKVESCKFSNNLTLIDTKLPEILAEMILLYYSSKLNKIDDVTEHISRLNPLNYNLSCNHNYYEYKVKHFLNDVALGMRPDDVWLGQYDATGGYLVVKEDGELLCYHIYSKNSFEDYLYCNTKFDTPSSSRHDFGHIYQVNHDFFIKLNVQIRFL

[2] = tested on: four different polymerases; assay: Primer extension and PCR with 5-gmC-containing DNA; assay type: biochemical
Source text: The inventors synthesized the phosphoramidite of 5-hmC (now commercially available from Glen Research) and prepared duplex DNA with 5-hmC incorporated at specific locations.

Taq polymerase = target: T2, Taq polymerase (Thermus aquaticus, UniProt P19821); assay: Primer extension assay on 40-mer DNA template; assay type: biochemical; conditions: streptavidin added (6 eq.-48 eq.), 72° C., 1 min
T2 construct: purchased Sigma
T2 sequence (P19821 whole entry): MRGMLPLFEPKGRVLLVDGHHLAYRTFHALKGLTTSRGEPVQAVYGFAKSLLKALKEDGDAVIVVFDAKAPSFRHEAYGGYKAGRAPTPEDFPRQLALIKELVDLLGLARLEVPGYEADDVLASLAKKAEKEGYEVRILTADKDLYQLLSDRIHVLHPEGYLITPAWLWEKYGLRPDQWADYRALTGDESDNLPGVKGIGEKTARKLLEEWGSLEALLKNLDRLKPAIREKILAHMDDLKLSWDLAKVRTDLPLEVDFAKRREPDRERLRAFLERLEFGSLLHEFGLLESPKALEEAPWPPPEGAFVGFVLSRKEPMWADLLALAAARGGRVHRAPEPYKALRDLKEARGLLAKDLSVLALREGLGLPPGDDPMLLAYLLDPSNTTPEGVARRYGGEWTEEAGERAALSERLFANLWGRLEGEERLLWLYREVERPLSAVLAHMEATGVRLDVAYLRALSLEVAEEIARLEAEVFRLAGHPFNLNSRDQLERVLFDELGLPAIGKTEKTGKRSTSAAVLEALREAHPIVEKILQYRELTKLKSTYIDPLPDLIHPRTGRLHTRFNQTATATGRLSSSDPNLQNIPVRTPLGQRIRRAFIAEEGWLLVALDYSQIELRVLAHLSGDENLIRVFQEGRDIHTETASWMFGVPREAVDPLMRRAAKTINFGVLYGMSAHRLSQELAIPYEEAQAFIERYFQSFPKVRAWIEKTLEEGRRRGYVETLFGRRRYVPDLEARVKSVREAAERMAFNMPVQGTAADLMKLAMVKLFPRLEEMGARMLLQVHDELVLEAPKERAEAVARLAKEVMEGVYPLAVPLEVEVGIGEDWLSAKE
Source text: FIGS. 9A-9B. The streptavidin adduct of biotin-5-N3-gmC hinders primer extension. (A) Sequence of 40 mer DNA containing cytosines derivatives used in primer extension. Cytosine 25, counting from right to left, with an asterisk presented the modified cytosines in the sequences, and also the position at which DNA polymerases tended to stall when the streptavidine adduct of biotin-5-N3-gmC-containing DNA was used as template. The arrow corresponded to the reverse PCR primer used for primer extension. (B) Primer extension assays for 40 mer DNA containing different cytosine species, shown beside a Sanger sequencing ladder. […] Position with the most significant stalling was position 24, one base before the modified position, although significant stalling still observed in the modified position (position 25, arrow). Primer extension using Sigma TaqRED polymerase, extension at 72° C. for 1 min. Sequencing ladder was performed with Sequenase from USB.
The properties of 5-hmC in duplex DNA are quite similar to those of 5-mC in terms of its sensitivity toward enzymatic reactions such as restriction enzyme digestion and polymerization (Flusberg et al., 2010; Josse and Kornberg, 1962; Lariviere and Morera, 2004). In an attempt to develop a method to differentiate these two bases in DNA, primer extension with a biotin-N3-5-gmC-modified DNA template was tested. […]

MspI [3] = target: T1, MspI; assay: MspI digestion of 32-mer dsDNA with C*CGG; conditions: 100 U MspI, 1 hr, 37° C.
TaqαI = target: T3, TaqαI (Thermus aquaticus, UniProt P14386); assay: TaqαI digestion of 32-mer dsDNA with T*CGA; conditions: 100 U TaqαI, 1 hr, 65° C.
T3 sequence (P14386 1-263): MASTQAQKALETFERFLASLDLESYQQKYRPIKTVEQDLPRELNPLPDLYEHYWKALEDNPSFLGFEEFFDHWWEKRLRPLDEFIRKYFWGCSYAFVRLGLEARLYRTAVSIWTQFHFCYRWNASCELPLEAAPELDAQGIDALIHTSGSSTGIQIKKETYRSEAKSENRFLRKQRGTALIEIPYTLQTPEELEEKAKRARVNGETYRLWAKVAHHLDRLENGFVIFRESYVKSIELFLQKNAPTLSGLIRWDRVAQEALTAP

T1 sequence (P11405 whole entry): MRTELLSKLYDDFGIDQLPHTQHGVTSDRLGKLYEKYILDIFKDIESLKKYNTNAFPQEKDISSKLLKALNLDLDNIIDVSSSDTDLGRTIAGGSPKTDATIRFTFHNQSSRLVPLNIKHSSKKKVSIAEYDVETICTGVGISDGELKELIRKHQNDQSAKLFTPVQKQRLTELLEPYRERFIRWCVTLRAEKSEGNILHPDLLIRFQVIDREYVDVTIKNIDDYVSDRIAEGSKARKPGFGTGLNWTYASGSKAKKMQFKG
wild-type βGT, sequence (P04547 with tags, fused parts or gaps): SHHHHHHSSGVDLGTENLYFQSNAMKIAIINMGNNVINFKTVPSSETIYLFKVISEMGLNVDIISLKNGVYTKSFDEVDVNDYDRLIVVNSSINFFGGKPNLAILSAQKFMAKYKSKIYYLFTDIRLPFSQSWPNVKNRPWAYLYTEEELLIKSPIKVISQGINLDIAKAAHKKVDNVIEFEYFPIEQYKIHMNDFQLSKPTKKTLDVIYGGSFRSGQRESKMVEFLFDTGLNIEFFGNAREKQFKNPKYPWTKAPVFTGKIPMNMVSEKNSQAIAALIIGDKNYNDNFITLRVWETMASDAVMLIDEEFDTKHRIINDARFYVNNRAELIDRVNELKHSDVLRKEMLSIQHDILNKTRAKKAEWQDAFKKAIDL

With “Uridine 5′-(2,3,4-tri-O-acetyl-6-azido-6-deoxy-α-D-glucopyranosyl)diphosphate bistriethylammonium salt [UDP-6-N3-Glu]” as the substance, how does the “efficiency of transfer to 5-hmC-containing duplex DNA relative to UDP-Glu” value (wild-type βGT) read?
The value was “as efficiently as with UDP-Glu”.

What about the “time for 6-N3-glucose transfer reaction to finish” value (wild-type βGT; 11-mer duplex DNA with 5-hmC, as low as 1% enzyme concentration) of the same substance?
Its value is no more than 5 min.

With “β-glucosyl-5-hydroxymethyl-cytosine [5-gmC]” as the substance, how does the “MspI cutting of modified CC*GG site” value (MspI [1]) read?
Its value is “completely blocks”.

And the “MspI cutting of modified CC*GG site” value (MspI [1]; listed as C(5-gmC)GG)?
The value was “completely blocked”.

What about the “HpaII cutting of modified CC*GG site” value (HpaII) of the same substance?
Its value is “does not cut”.

And the “interference with polymerization reaction” value [2]?
The value was “does not exhibit any interference”.

For “β-6-azide-glucosyl-5-hydroxymethyl-cytosine [N3-5-gmC]”, which “primer extension on modified template with streptavidin” value (Taq polymerase) is on record?
Its value is “completely stalled”.

What about the “MspI digestion, fully-modified DNA” value (MspI [3]) of the same substance?
Its value is “block MspI digestion completely”.

And the “MspI digestion, hemi-modified DNA” value (MspI [3])?
Its value is “can be protected from digestion”.

What about the “TaqαI digestion, hemi-modified DNA” value (TaqαI; hemi-hydroxymethylation) of the same substance?
Its value is “cannot block digestion as well as the fully-modified one”.

What about the “TaqαI digestion, fully-modified DNA” value (TaqαI; modified on both strands) of the same substance?
Its value is “only partially”.
